Patent US20100159039A1, “ANTIVIRAL AGENTS CONTAINING A FERMENTATION PRODUCT OF GARLIC BY LACTIC ACID BACTERIA” (Liisna Inc., priority 2008, published 2010)
Converted amounts (≈) assume the structure as drawn. Like-named read-outs stand apart in the source and are kept apart here.

Tests used:
[1] = system: influenza virus Type B (B/Panama/45/90); assay: CPE inhibition assay in MDCK cells, influenza B; type: cell-based; conditions: for EC50: Influenza B virus, MDCK, 72 h, read-out: Antiviral activity (EC50) Panama B
[2] = system: influenza virus Type H1N1 (A/Taiwan/1/86); assay: CPE inhibition assay in MDCK cells, influenza A/H1N1; type: cell-based; conditions: for EC50: 72 h, MDCK cells, 100 CCID50, three days, read-out: Antiviral activity (EC50) Taiwan A/H1N1
in vitro = conditions: dog
[3] = system: influenza virus Type H3N2 (A/Seoul/11/88); assay: CPE inhibition assay in MDCK cells, influenza A/H3N2; type: cell-based; conditions: for EC50: 72 h, MDCK cells, 100 CCID50, three days, read-out: Antiviral activity (EC50) Seoul A/H3N2
[4] = system: MDCK (Madin-Darby canine kidney) cells

SMILES	EC50 [1] [mg/L]	EC50 [2] [mg/L]	CC50 (in vitro) [mg/L]	Selectivity index (SI, CC50/EC50) Seoul A/H3N2 [3]	EC50 [3] [mg/L]	Selectivity index (SI, CC50/EC50) Panama B [1]	Toxicity CC50 (50% cytotoxic concentration) [4]	Selectivity index (SI, CC50/EC50) Taiwan A/H1N1 ([2]; CC50/EC50)	Selectivity index (SI, CC50/EC50) Seoul A/H3N2 ([3]; CC50/EC50)	Selectivity index (SI, CC50/EC50) Taiwan A/H1N1 [2]
NC12CC3CC(CC(C3)C1)C2 [Amantadine, amantadine]	> 100	> 100	> 100	>204.1	0.49 (≈ 3.24 µM)	–	–	–	–	–
CC(O)C(=O)O (centres unmarked) [Lactic acid, lactic acid]	–	–	–	–	–	<1.00	0.014	<1.00	<1.00	–
CCOC(=O)C1=C[C@@H](OC(CC)CC)[C@H](NC(C)=O)[C@@H](N)C1 [Oseltamivir, oseltamivir]	10.1 (≈ 32.5 µM)	16.4 (≈ 52.3 µM)	> 100	–	0.49 (≈ 1.57 µM)	>9.9	–	>6.1	>202.4	–
NC(=O)c1ncn([C@@H]2O[C@H](CO)[C@@H](O)[C@H]2O)n1 [Ribavirin, ribavirin]	2.29 (≈ 9.38 µM)	6.54 (≈ 26.8 µM)	> 100	>34.7	2.88 (≈ 11.8 µM)	>43.7	–	–	–	>15.3
